In patent US20220184081A1, “ANTIPRURITIC AGENT USING PAC1 RECEPTOR ANTAGONIST” (KAGOSHIMA UNIVERSITY, priority 2019, published 2022):
No end group written: not given here.

Key:
[1] = system: PACAP-induced itch behavior in mice; assay: Itch behavior induced by PACAP intradermal administration; format: in vivo, mouse; conditions: for biting, licking or scratching behavior induced by PACAP (100 pmol) intradermal administration: simultaneous intradermal administration with PACAP, 0.01 to 1 nmol, FIG. 7A, 8, 9
Source text: SLN indicates intradermal administration of normal saline. DMSO (10% solution, dissolved in normal saline) is a solvent for PA-8.
SLN indicates intradermal administration of normal saline. VEH (10% DMSO solution, dissolved in normal saline) is a solvent for PA-8 and the compound 2o.
SLN indicates intradermal administration of normal saline. VEH (10% DMSO solution, dissolved in normal saline) is a solvent for PA-9 and the compound 3d.

[2] = system: chloroquine-induced itch behavior in mice; assay: Itch behavior induced by chloroquine intradermal administration; format: in vivo, mouse; conditions: intrathecal pre-administration (i.t., 10 minutes before i.d.), 1 nmol; chloroquine 100 μg/10 μL; FIG. 10
Experimental: (§1) Chloroquine (100 μg/10 μL) was intradermally injected into the waist of each mouse (intradermal injection, i.d.). The reaction of biting, licking or scratching the injected site was defined as itch behavior, and the behavioral time was counted every 5 minutes. […] DMSO (10% solution, dissolved in normal saline) is a solvent for PA-8 or PA-9.

mouse PAC1 receptor = biological target: T1, mouse PAC1 receptor (Mus musculus, UniProt P70205); assay: CREB phosphorylation by PACAP stimulus, Western blot, PAC1/CHO cells; format: cell-based; conditions: PAC1/CHO cells; for CREB phosphorylation by PACAP (1 nM): compound 10 pM to 10 nM for 30 minutes before PACAP, FIG. 4A, 4C, 4D, 5
T1 construct: expressed in transfected cells; host or cells: CHO cells
T1 sequence (P70205 21-496): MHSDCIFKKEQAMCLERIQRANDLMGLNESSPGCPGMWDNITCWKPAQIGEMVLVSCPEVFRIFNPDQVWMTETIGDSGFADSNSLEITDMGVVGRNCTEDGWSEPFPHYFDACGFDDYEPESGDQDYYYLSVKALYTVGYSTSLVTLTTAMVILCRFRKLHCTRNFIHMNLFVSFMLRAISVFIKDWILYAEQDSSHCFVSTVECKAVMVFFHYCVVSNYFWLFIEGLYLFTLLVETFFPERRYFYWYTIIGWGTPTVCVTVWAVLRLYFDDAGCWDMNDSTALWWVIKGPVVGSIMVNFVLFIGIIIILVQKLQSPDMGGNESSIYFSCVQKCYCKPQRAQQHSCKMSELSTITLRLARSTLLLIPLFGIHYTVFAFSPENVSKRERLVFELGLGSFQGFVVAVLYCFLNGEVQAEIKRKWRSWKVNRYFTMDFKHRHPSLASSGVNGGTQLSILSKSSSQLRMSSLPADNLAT
Experimental: The effect of each compound on the phosphorylation of CREB (cAMP-responsive element-binding protein) produced by a PACAP stimulus was examined by Western blot analysis using an anti-phosphorylated CREB (pCREB) antibody with a mouse PAC1 receptor-expressing CHO cells (PAC1/CHO cells) and a mouse VPAC1 receptor-expressing CHO cells (VPAC1/CHO cells).
Specifically, treatment with a compound (PA-8, compound 2j and compound 2o) at 10 pM to 10 nM or a solvent therefor, DMSO (VEH: 0.1% DMSO-containing phosphate buffer solution) was performed for 30 minutes, 1 nM PACAP was then added, and protein was recovered within 30 minutes after a PACAP stimulus.
The effect of each compound on the phosphorylation of CREB (cAMP-responsive element-binding protein) produced by a PACAP stimulus was examined by Western blot analysis using an anti-phosphorylated CREB (pCREB) antibody with a mouse PAC1 receptor-expressing CHO cells (PAC1/CHO cells).

[3] = system: Compound 48/80-induced itch behavior in mice; assay: Itch behavior induced by Compound 48/80 intradermal administration; format: in vivo, mouse; conditions: intrathecal pre-administration (i.t., 10 minutes before i.d.), 1 nmol; Compound 48/80 100 μg/10 μL; FIG. 11
Experimental: as §1, with “Compound 48/80” for “Chloroquine”

[4] = system: atopic dermatitis mouse model; assay: Atopic dermatitis mouse model (DNFB); format: in vivo, ICR mice; conditions: 30 mg/kg p.o. 30 minutes before 1 hour video observation; FIG. 13
Experimental: The present test was carried out with reference to the method of Kitamura et al. that is a test system published as a method for evaluating itch in animals (Kitamura A., Takata R., Aizawa S., et al.: A murine model of atopic dermatitis can be generated by painting the dorsal skin with hapten twice 14 days apart, Scientific Rep., 8: 5988, 2018).
Five-week-old ICR mice (30 mice) were each placed in a cage, and were then conditioned for 1 week. Thereafter, three days before initiation of the test, the waist of each mouse was shaved. On the experiment start date, for the purpose of destroying the function of skin barrier, tape stripping was carried out, and 0.15% 2,4-dinitrofluorobenzene (DNFB) solution [acetone/olive oil (3:1)] was applied to the shaved waist of each mouse, using a 100-μIL pipette. Seven days later, the 0.15% DNFB solution was applied thereto once again, and two hours later, video observation was carried out for 1 hour. The shaved 30 mice were divided into 5 groups (6 mice per group), namely, a 30 mg/kg PA-8 oral (p.o.) administration group, a 30 mg/kg compound 2o oral (p.o.) administration group, a 30 mg/kg PA-9 oral (p.o.) administration group, a 30 mg/kg compound 3d (p.o.) administration group, and a solvent administration group (VEH: oral administration of 10% DMSO aqueous solution). Oral administration was carried out 30 minutes before initiation of the video observation.
An outline of the procedures of a behavioral experiment using the atopic dermatitis mouse model is shown in FIG. 12, and the results obtained by evaluating the time spent in scratching of each group are shown in FIG. 13.

psoriasis mouse model = assay: Psoriasis mouse model (imiquimod); format: in vivo, ICR mice; conditions: 30 mg/kg p.o. 30 minutes before 1 hour video observation; FIG. 14
Experimental: The present test was carried out with reference to the method of van der Fits et al. that is a test system published as a method for evaluating itch in animals (van der Fits L., Mounts S., Voerman J S A., et al.: Imiquimod-Induced Psoriasis-Like Skin Inflammation in Mice Is Mediated via the IL-23/IL-17 Axis, J. Immunol., 182, 5836-5845, 2009).
Five-week-old ICR mice (20 mice) were each placed in a cage, and were then conditioned for 1 week. Thereafter, three days before initiation of the test, the waist of each mouse was shaved. Then, 62.5 mg of commercially available imiquimod cream (5% Beselna Cream; MOCHIDA PHARMACEUTICAL CO., LTD.) was applied onto the shaved waist skin of the mice once a day for 5 days, so as to produce imiquimod-induced psoriasis model. Twenty-four hours after the final application of the cream (Day 5), video observation was carried out for 1 hour. The shaved 20 mice were divided into 5 groups (4 mice per group), namely, a 30 mg/kg PA-8 oral (p.o.) administration group, a 30 mg/kg compound 2o oral (p.o.) administration group, a 30 mg/kg PA-9 oral (p.o.) administration group, a 30 mg/kg compound 3d (p.o.) administration group, and a solvent administration group (VEH: oral administration of 10% DMSO aqueous solution). Oral administration was carried out 30 minutes before initiation of the video observation.

[5] = system: serotonin (5-HT)-induced itch mouse model; assay: Serotonin (5-HT)-induced itch mouse model; format: in vivo; conditions: intrathecal pre-administration 30 minutes before 5-HT 50 nmol i.d.; PA-8 0.1 or 1 nmol; P6-38 100 pmol; FIG. 1
Experimental: 5-HT (50 nmol, 10 μL) was intradermally injected into the waist of each mouse (intradermal injection, i.d.). The reaction of the mice to bite, lick or scratch the injected site was defined as an itch behavior, and the action time was measured every 5 minutes. […] SLN indicates the effects obtained in the case of administering normal saline instead of 5-HT. ACSF is an abbreviation of an artificial cerebrospinal fluid, which was a solvent for P6-38 and PA-8.

[6] = system: patients with atopic dermatitis; conditions: patients with high severity, insufficient effect of topical steroids/tacrolimus; cited from earlier work
mice = assay: Itch behavior upon waist intradermal administration of peptide; format: in vivo, mouse; conditions: waist intradermal administration 10 μL; PACAP 1 to 1,000 pmol; VIP 100 pmol; FIG. 6
Source text: Accordingly, it is considered that this effect is mediated by the PAC1 receptors (FIG. 6).

Compound | biting, licking or scratching behavior induced by PACAP (100 pmol) intradermal administration [1] | CREB phosphorylation by PACAP (1 nM) (mouse PAC1 receptor) | itch behavior induced by the DNFB treatment (time spent in scratching) [4] | itch behavior induced by application of imiquimod (time spent in scratching) (psoriasis mouse model) | further results
O=C(NCCc1c[nH]cn1)C1CC(=O)N(c2n[nH]c3ccccc23)C1 (centres unmarked) [PA-9] | suppressed in a dose-dependent manner | suppressed depending on the concentration | significantly suppressed | significantly suppressed | chloroquine-induced itch behavior [2]: almost completely suppressed; Compound 48/80-induced itch behavior [3]: almost completely suppressed
CCOc1cccc(C2CC(=O)Nc3nc(N)[nH]c(=O)c32)c1 (centres unmarked) [compound 2j, 2-Amino-5-(3-ethoxyphenyl)-5,8-dihydro-3H,6H-pyrido[2,3-d]pyrimidine-4,7-dione] | – | suppressed depending on the concentration | – | – | –
Nc1nc2c(c(=O)[nH]1)C(c1cccc(OC(F)(F)F)c1)CC(=O)N2 (centres unmarked) [compound 2o, 2-Amino-5-(3-trifluoromethoxyphenyl)-5,8-dihydro-3H,6H-pyrido[2,3-d]pyrimidine-4,7-dione] | suppressed in a dose-dependent manner | suppressed CREB phosphorylation | significantly suppressed | significantly suppressed | effect of suppressing CREB phosphorylation compared with PA-8 (mouse PAC1 receptor; 10 pM to 10 nM): slightly stronger effect of suppressing CREB phosphorylation than PA-8
O=C(NCCc1c[nH]cn1)C1CC(=O)N(c2n[nH]c3c(Cl)cccc23)C1 (centres unmarked) [compound 3d, N-[2-(1H-imidazol-4-yl)ethyl]-1-(7-chloro-1H-indazol-3-yl)-5-oxo-3-pyrrolidinecarboxamide] | suppressed in a dose-dependent manner | suppressed depending on the concentration | significantly suppressed | significantly suppressed | –
O=C1CC[C@@]2(O)[C@H]3Cc4ccc(O)c5c4[C@@]2(CCN3CC2CC2)[C@H]1O5 [naltrexone] | – | – | – | – | itch behavior induced by PACAP (100 pmol) intradermal administration ([1]; subcutaneous administration 1 mg/kg 15 minutes before PACAP, FIG. 7B): significantly suppressed
PACAP 6-38 | – | – | – | – | 5-HT-induced itch behavior (bite, lick or scratch the injected site, action time) [5]: did not provide significant effects
dupilumab: human type anti-human IL-4/IL-13 receptor monoclonal antibody | – | – | – | – | share of patients for whom the drug is effective [6]: approximately 40%
vasoactive intestinal peptide (HSDAVFTDNYTRLRKQMAVKKYLNSILN; ends and bridges not checked; UniProt P01282 125-152, looked up) [VIP] | – | – | – | – | itch behavior (biting, licking or scratching the administered site) caused by the peptide (mice): such effect was not observed
